Target: T1, human MGL from HeLa cells (Homo sapiens, UniProt Q99685)
T1 construct: combining endogenously expressed MGL from HeLa cells with test compounds; endogenous in cells; host or cells: HeLa cells / cell homogenates
T1 sequence (Q99685 1-303): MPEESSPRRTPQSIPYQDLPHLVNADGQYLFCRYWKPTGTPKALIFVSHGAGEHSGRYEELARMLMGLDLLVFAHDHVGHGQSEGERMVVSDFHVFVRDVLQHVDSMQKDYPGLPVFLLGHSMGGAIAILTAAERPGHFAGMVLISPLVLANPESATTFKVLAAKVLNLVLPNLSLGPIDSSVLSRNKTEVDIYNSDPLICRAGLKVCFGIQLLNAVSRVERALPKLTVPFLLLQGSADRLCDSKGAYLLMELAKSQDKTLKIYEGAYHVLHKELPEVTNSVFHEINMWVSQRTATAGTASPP
Assay: In vitro MGL activity assay: [glycerol-1,3-3H]-oleyl glycerol cleavage by MGL from HeLa cells
Type: biochemical
Conditions: 300 nM [Glycerol-1,3-3H]-oleyl glycerol, one hour
Source text: MGL is the predominant hydrolase in HeLa cells/cell homogenates.

SMILES	IC50
C[C@H]1c2nn(C)c(-c3cc(F)c(F)c(F)c3)c2CCN1C(=O)c1c[nH]c2ncccc12 [Example 373, [(7S)-2,7-Dimethyl-3-(3,4,5-trifluorophenyl)-5,7-dihydro-4H-pyrazolo[3,4-c]pyridin-6-yl]-(1H-pyrrolo[2,3-b]pyridin-3-yl)methanone]	23.2 nM
C[C@H]1c2nn(C)c(-c3cc(F)cc(C(F)F)c3)c2CCN1C(=O)c1ccc2c(c1)OCCC2 [Example 610, Chroman-7-yl-[(7S)-3-[3-(difluoromethyl)-5-fluoro-phenyl]-2,7-dimethyl-5,7-dihydro-4H-pyrazolo[3,4-c]pyridin-6-yl]methanone]	29.4 nM
C[C@H]1c2nn(C)c(-c3cc(F)c(F)c(F)c3)c2CCN1C(=O)c1cccn2ncc(Br)c12 [Example 379, (3-Bromopyrazolo[1,5-a]pyridin-4-yl)-[(7S)-2,7-dimethyl-3-(3,4,5-trifluorophenyl)-5,7-dihydro-4H-pyrazolo[3,4-c]pyridin-6-yl]methanone]	45.5 nM
C[C@H]1c2nn(C)c(-c3cc(F)c(F)c(F)c3)c2CCN1C(=O)c1c(F)cnc2c1ccn2C [Example 370, [(7S)-2,7-Dimethyl-3-(3,4,5-trifluorophenyl)-5,7-dihydro-4H-pyrazolo[3,4-c]pyridin-6-yl]-(5-fluoro-1-methyl-pyrrolo[2,3-b]pyridin-4-yl)methanone]	0.3 nM
COc1cccc(-c2c3c(nn2C)[C@H](C)N(C(=O)c2ccc4ncccc4c2)CC3)c1 [Example 495, [(7S)-3-(3-Methoxyphenyl)-2,7-dimethyl-5,7-dihydro-4H-pyrazolo[3,4-c]pyridin-6-yl]-(6-quinolyl)methanone]	47.1 nM
C[C@H]1c2nn(C)c(-c3cc(F)c(F)c(F)c3)c2CCN1C(=O)c1c(F)cccc1-n1cccn1 [Example 603, [(7S)-2,7-Dimethyl-3-(3,4,5-trifluorophenyl)-5,7-dihydro-4H-pyrazolo[3,4-c]pyridin-6-yl]-(2-fluoro-6-pyrazol-1-yl-phenyl)methanone]	114 nM
COc1cncc(F)c1C(=O)N1CCc2c(nn(C)c2-c2cc(F)c(F)c(F)c2)[C@@H]1C [Example 607, [(7S)-2,7-Dimethyl-3-(3,4,5-trifluorophenyl)-5,7-dihydro-4H-pyrazolo[3,4-c]pyridin-6-yl]-(3-fluoro-5-methoxy-4-pyridyl)methanone]	18.2 nM
C[C@H]1c2nn(C)c(-c3cc(F)c(F)c(F)c3)c2CCN1C(=O)c1cnn(C2CC2)c1C(F)(F)F [Example 346, [1-Cyclopropyl-5-(trifluoromethyl)pyrazol-4-yl]-[(7S)-2,7-dimethyl-3-(3,4,5-trifluorophenyl)-5,7-dihydro-4H-pyrazolo[3,4-c]pyridin-6-yl]methanone]	22.4 nM
C[C@H]1c2nn(C)c(-c3cc(F)c(F)c(F)c3)c2CCN1C(=O)c1cn(C)c2ccc(F)cc12 [Example 356, [(7S)-2,7-Dimethyl-3-(3,4,5-trifluorophenyl)-5,7-dihydro-4H-pyrazolo[3,4-c]pyridin-6-yl]-(5-fluoro-1-methyl-indol-3-yl)methanone]	18.6 nM

Same assay, conditions: 300 nM [Glycerol-1,3-3H]-oleyl glycerol, one hour incubation

SMILES	IC50
Cn1nc2c(c1-c1ccccc1)CCN(C(=O)c1ccc3ncoc3c1)C2 [Example 56, Benzo[d]oxazol-6-yl(2-methyl-3-phenyl-2,4,5,7-tetrahydro-6H-pyrazolo[3,4-c]pyridin-6-yl)methanone]	293 nM
C[C@H]1c2nn(C)c(-c3cc(F)c(F)c(F)c3)c2CCN1C(=O)c1nccc2c1ccn2C [Example 217, (S)-(2,7-Dimethyl-3-(3,4,5-trifluorophenyl)-2,4,5,7-tetrahydro-6H-pyrazolo[3,4-c]pyridin-6-yl)(1-methyl-1H-pyrrolo[3,2-c]pyridin-4-yl)methanone]	5.07 nM
Cc1nc2ccc(C(=O)N3CCc4c(nn(C)c4-c4cccc(Cl)c4)[C@@H]3C)cc2o1 [Example 125, (S)-(3-(3-Chlorophenyl)-2,7-dimethyl-2,4,5,7-tetrahydro-6H-pyrazolo[3,4-c]pyridin-6-yl)(2-methylbenzo[d]oxazol-6-yl)methanone]	9.52 nM
COc1ccc(-c2c3c(nn2C)[C@H](C)N(C(=O)c2ccc4nccnc4c2)CC3)cc1Cl [Example 188, (S)-(3-(3-Chloro-4-methoxyphenyl)-2,7-dimethyl-2,4,5,7-tetrahydro-6H-pyrazolo[3,4-c]pyridin-6-yl)(quinoxalin-6-yl)methanone]	105 nM
COc1ccc(-c2c3c(nn2C)[C@H](C)N(C(=O)c2ccc4nccnc4c2)CC3)cc1F [Example 185, (S)-(3-(3-Fluoro-4-methoxyphenyl)-2,7-dimethyl-2,4,5,7-tetrahydro-6H-pyrazolo[3,4-c]pyridin-6-yl)(quinoxalin-6-yl)methanone]	386 nM
C[C@H]1c2nn(C)c(-c3cc(F)cc(F)c3)c2CCN1C(=O)c1cc(OCCF)ccc1Cl [Example 146, (2-Chloro-5-(2-fluoroethoxy)phenyl)(3-(3,5-difluorophenyl)-2,7-dimethyl-2,4,5,7-tetrahydro-6H-pyrazolo[3,4-c]pyridin-6-yl)methanone]	3.73 nM
C[C@H]1c2nn(C)c(-c3cc(F)c(F)c(F)c3)c2CCN1C(=O)c1cn(C)c2cnccc12 [Example 221, (S)-(2,7-Dimethyl-3-(3,4,5-trifluorophenyl)-2,4,5,7-tetrahydro-6H-pyrazolo[3,4-c]pyridin-6-yl)(1-methyl-1H-pyrrolo[2,3-c]pyridin-3-yl)methanone]	78.9 nM
Cc1ccc(-n2nccn2)c(C(=O)N2CCc3c(nn(C)c3-c3cc(F)c(F)c(F)c3)[C@@H]2C)c1 [Example 197, (S)-(2,7-Dimethyl-3-(3,4,5-trifluorophenyl)-2,4,5,7-tetrahydro-6H-pyrazolo[3,4-c]pyridin-6-yl)(5-methyl-2-(2H-1,2,3-triazol-2-yl)phenyl)methanone]	60 nM
C[C@H]1c2nn(C)c(-c3cccc(Cl)c3)c2CCN1C(=O)c1cccc2c1OCO2 [Example 123, (S)-Benzo[d][1,3]dioxol-4-yl(3-(3-chlorophenyl)-2,7-dimethyl-2,4,5,7-tetrahydro-6H-pyrazolo[3,4-c]pyridin-6-yl)methanone]	45.1 nM
Cn1nc2c(c1-c1ccccc1)CCN(C(=O)c1cccc3c1ccn3C)C2 [Example 51, (1-Methyl-1H-indol-4-yl)(2-methyl-3-phenyl-2,4,5,7-tetrahydro-6H-pyrazolo[3,4-c]pyridin-6-yl)methanone]	15.6 nM
C[C@H]1c2nn(C)c(-c3cc(F)c(F)c(F)c3)c2CCN1C(=O)c1cc(F)ccc1-n1cncn1 [Example 281, [(7S)-2,7-Dimethyl-3-(3,4,5-trifluorophenyl)-5,7-dihydro-4H-pyrazolo[3,4-c]pyridin-6-yl]-[5-fluoro-2-(1,2,4-triazol-1-yl)phenyl]methanone]	9.01 nM
CC(C)Oc1ccc(C(=O)N2CCc3c(nn(C)c3-c3cccc(Cl)c3)[C@@H]2C)cn1 [Example 121, (S)-(3-(3-Chlorophenyl)-2,7-dimethyl-2,4,5,7-tetrahydro-6H-pyrazolo[3,4-c]pyridin-6-yl)(6-isopropoxypyridin-3-yl)methanone]	330 nM
C[C@H]1c2nn(C)c(-c3cc(F)c(F)c(F)c3)c2CCN1C(=O)c1ncn(-c2ccccn2)n1 [Example 323, [(7S)-2,7-Dimethyl-3-(3,4,5-trifluorophenyl)-5,7-dihydro-4H-pyrazolo[3,4-c]pyridin-6-yl]-[1-(2-pyridyl)-1,2,4-triazol-3-yl]methanone]	65.6 nM
C[C@H]1c2nn(C)c(-c3cc(F)c(F)c(F)c3)c2CCN1C(=O)c1nccc2[nH]ccc12 [Example 216, (S)-(2,7-Dimethyl-3-(3,4,5-trifluorophenyl)-2,4,5,7-tetrahydro-6H-pyrazolo[3,4-c]pyridin-6-yl)(1H-pyrrolo[3,2-c]pyridin-4-yl)methanone]	26.2 nM
COc1cc(C(=O)N2CCc3c(nn(C)c3-c3cc(F)c(F)c(F)c3)[C@@H]2C)cc(-n2cncn2)c1 [Example 278, [(7S)-2,7-Dimethyl-3-(3,4,5-trifluorophenyl)-5,7-dihydro-4H-pyrazolo[3,4-c]pyridin-6-yl]-[3-methoxy-5-(1,2,4-triazol-1-yl)phenyl]methanone]	3.24 nM
COc1cccnc1C(=O)N1CCc2c(nn(C)c2-c2cc(F)c(F)c(F)c2)[C@@H]1C [Example 303, [(7S)-2,7-Dimethyl-3-(3,4,5-trifluorophenyl)-5,7-dihydro-4H-pyrazolo[3,4-c]pyridin-6-yl]-(3-methoxy-2-pyridyl)methanone]	113 nM
CC1c2nn(C)c(-c3cc(F)cc(Cl)c3)c2CCN1C(=O)c1ccc2nccnc2c1 (centres unmarked) [Example 180, (3-(3-Chloro-5-fluorophenyl)-2,7-dimethyl-2,4,5,7-tetrahydro-6H-pyrazolo[3,4-c]pyridin-6-yl)(quinoxalin-6-yl)methanone]	31.3 nM
C[C@H]1c2nn(C)c(-c3cc(F)c(F)c(F)c3)c2CCN1C(=O)c1cnc2c(cnn2C)c1 [Example 231, (S)-(2,7-Dimethyl-3-(3,4,5-trifluorophenyl)-2,4,5,7-tetrahydro-6H-pyrazolo[3,4-c]pyridin-6-yl)(1-methyl-1H-pyrazolo[3,4-b]pyridin-5-yl)methanone]	124 nM
CNC(=O)c1cccc(C(=O)N2CCc3c(nn(C)c3-c3cc(F)c(F)c(F)c3)[C@@H]2C)c1 [Example 266, 3-[(7S)-2,7-Dimethyl-3-(3,4,5-trifluorophenyl)-5,7-dihydro-4H-pyrazolo[3,4-c]pyridine-6-carbonyl]-N-methyl-benzamide]	132 nM
C[C@H]1c2nn(C)c(-c3cc(F)c(F)c(F)c3)c2CCN1C(=O)c1cccc(-c2cnn(C)c2)c1 [Example 273, [(7S)-2,7-Dimethyl-3-(3,4,5-trifluorophenyl)-5,7-dihydro-4H-pyrazolo[3,4-c]pyridin-6-yl]-[3-(1-methylpyrazol-4-yl)phenyl]methanone]	93.1 nM
